From article PMC5623949, “Exploiting the 2-Amino-1,3,4-thiadiazole Scaffold To Inhibit Trypanosoma brucei Pteridine Reductase in Support of Early-Stage Drug Discovery” (ACS Omega, 2017)
Entries after “also recorded” stand apart in the source; their conditions may differ.

Columns and labels:
hERG = molecular target: T1, hERG (Homo sapiens, UniProt Q12809); design: hERG channel inhibition
T1 construct: gene KCNH2
Experimental: Independent of the effect of any antiparasitic potential of compounds, they were evaluated using a panel of early-toxicity assays comprising cytotoxicity (A549, human lung adenocarcinoma epithelial cell line and WI-38, human lung fibroblasts), mitochondrial toxicity (786-O, human renal carcinoma cell line), hERG inhibition,[31] cytochrome P450 inhibition (CYP1A2, CYP2C9, CYP2C19, CYP2D6, and CYP3A4),[31] and Aurora B kinase inhibition. […] For the two compounds active against TbPTR1 (4m and 4o), IC50 against hERG, cytochrome P450, and mitochondrial toxicity were determined (reported in Supporting Information). We observed that the dose of compounds 4m, 4o, 4c, and 3k was 4 μM in the potentiation assays. […] In the case of hERG, CYP2D6, CYP2A9, CYP2C19, and mitochondrial toxicity, there is a selectivity index of around 3–4 fold, thus showing an acceptable profile.

CYP3A4 = CYP3A4 (Homo sapiens, UniProt P08684); test: in vitro; design: cytochrome P450 isoform inhibition liability assay
Chain of CYP3A4 (P08684 whole entry, canonical isoform): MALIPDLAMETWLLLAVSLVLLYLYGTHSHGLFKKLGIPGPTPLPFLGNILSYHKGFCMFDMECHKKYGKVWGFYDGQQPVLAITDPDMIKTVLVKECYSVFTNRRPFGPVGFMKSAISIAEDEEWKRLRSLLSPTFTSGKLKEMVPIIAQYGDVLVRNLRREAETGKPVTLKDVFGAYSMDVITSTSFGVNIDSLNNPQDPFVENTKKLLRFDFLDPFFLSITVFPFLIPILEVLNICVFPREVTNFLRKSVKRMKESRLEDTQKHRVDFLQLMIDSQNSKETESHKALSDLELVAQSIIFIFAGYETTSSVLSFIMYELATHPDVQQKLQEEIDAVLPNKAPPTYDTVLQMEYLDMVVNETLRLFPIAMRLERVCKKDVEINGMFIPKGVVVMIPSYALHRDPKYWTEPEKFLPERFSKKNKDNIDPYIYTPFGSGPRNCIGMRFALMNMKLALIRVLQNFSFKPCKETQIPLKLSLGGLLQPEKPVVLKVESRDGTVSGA

CYP2D6 = CYP2D6 (Homo sapiens, UniProt P10635); test: in vitro; design: cytochrome P450 isoform inhibition liability assay
Chain of CYP2D6 (P10635 whole entry, canonical isoform): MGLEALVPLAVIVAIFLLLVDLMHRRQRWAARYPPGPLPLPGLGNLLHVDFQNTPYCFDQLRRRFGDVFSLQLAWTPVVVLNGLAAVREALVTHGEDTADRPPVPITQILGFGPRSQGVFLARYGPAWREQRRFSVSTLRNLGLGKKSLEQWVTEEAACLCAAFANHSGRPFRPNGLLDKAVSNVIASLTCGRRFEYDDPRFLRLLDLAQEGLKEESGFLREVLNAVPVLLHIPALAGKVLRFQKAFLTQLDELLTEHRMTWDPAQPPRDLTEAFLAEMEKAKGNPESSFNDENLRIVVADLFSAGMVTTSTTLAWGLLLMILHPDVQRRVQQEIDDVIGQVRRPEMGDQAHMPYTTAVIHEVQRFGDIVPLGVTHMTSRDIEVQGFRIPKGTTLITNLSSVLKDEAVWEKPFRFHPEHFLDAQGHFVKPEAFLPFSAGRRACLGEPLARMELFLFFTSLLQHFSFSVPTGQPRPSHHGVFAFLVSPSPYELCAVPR

TbDHFR = molecular target: T2, TbDHFR (Trypanosoma brucei brucei, UniProt Q27783); test: TbDHFR enzyme inhibition (spectrophotometric); assay type: biochemical; details: 100 μM; Table S3
T2 construct: made in house
T2 sequence (Q27783 whole entry): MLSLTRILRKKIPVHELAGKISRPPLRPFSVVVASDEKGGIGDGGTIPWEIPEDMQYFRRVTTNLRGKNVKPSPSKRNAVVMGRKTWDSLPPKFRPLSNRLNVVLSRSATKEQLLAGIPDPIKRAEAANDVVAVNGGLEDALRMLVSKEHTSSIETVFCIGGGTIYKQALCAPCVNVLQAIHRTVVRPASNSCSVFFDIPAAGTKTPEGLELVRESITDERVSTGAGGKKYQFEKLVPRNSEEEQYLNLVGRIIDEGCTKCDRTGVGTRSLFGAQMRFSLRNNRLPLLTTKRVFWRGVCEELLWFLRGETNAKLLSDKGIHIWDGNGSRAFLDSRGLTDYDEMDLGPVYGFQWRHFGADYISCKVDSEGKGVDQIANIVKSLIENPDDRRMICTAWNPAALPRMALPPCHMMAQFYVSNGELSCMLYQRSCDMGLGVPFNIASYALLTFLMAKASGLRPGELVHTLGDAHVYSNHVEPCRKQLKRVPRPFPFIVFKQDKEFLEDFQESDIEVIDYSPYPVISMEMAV

hDHFR = molecular target: T3, hDHFR (Homo sapiens, UniProt P00374); test: biochemical; design: human DHFR enzyme inhibition
T3 construct: gene DHFR
T3 sequence (P00374 1-187): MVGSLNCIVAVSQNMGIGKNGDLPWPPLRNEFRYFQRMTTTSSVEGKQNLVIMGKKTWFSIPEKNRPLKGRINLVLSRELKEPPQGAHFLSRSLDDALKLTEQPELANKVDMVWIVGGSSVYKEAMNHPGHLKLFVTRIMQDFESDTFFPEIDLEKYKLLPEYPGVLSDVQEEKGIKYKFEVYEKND
Outline: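 hDHFR inhibition tested at a single concentration of 100 μM, expressed as percent inhibitory activity.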

[1] = test system: T. b. brucei Lister 427 bloodstream forms; test: T. brucei resazurin assay for MTX potentiation and folic acid supplementation; assay type: cell-based, Trypanosoma brucei brucei; details: for antiparasitic effect as single agent: compound alone, 4m at 50 μM
Experimental: T. b. brucei Lister 427 bloodstream forms were grown at 37 °C and 5% CO2 in a complete HMI-9 medium, supplemented with 10% FCS and 100 UI/mL of penicillin/streptomycin. The cultures were diluted until a cell density of 2 × 10^6/mL was reached. The efficacy of compounds against T. brucei bloodstream forms was evaluated using a modified resazurin-based assay previously described.[46] The compounds were prepared from a stock solution in 10 mM DMSO and diluted in HMI-9 (supplemented or not with 1 mM folic acid, Sigma-Aldrich) to 40 μM work solution (0.4% DMSO, with the DMSO limit in the assay being 0.4%). […] The 40 μM work solution was then used to perform serial dilutions (1:2) in a 96-well plate. Upon compound addition to the test plate, the mid-log bloodstream forms were added (100 μL) in complete HMI-9 medium (supplemented or not with 1 mM folic acid) at a final cell density of 1 × 10^4/mL in a final well volume of 200 μL with a maximum DMSO concentration of 0.2%. Following incubation for 72 h at 37 °C and 5% CO2, 20 μL of 0.5 mM resazurin solution was added, and the plates were incubated further for 4 h under the same conditions. Fluorescence was measured at 540 and 620 nm excitation and emission wavelengths, respectively, using a Synergy 2 multi-mode reader (BioTek). […] This approach requires the use of both compounds at their EC50 potency in the combination, which is impossible to be detected for compound 4m having no intrinsic antiparasitic activity as a single agent at the tested concentrations. Folic acid (1 mM) was chosen on the basis of the following experiments. The stock solution of 10 mM folic acid dissolved in NaOH solution was used to perform a dose–response curve with folic acid alone to evaluate the maximum amount we could use without compromising parasite growth due to pH modification of the media. […] The IC50 values reported are the averages of the results obtained in at least two independent experiments. Pentamidine was used as the reference drug and internal control in all assays.

T1 sequence (Q12809 whole entry): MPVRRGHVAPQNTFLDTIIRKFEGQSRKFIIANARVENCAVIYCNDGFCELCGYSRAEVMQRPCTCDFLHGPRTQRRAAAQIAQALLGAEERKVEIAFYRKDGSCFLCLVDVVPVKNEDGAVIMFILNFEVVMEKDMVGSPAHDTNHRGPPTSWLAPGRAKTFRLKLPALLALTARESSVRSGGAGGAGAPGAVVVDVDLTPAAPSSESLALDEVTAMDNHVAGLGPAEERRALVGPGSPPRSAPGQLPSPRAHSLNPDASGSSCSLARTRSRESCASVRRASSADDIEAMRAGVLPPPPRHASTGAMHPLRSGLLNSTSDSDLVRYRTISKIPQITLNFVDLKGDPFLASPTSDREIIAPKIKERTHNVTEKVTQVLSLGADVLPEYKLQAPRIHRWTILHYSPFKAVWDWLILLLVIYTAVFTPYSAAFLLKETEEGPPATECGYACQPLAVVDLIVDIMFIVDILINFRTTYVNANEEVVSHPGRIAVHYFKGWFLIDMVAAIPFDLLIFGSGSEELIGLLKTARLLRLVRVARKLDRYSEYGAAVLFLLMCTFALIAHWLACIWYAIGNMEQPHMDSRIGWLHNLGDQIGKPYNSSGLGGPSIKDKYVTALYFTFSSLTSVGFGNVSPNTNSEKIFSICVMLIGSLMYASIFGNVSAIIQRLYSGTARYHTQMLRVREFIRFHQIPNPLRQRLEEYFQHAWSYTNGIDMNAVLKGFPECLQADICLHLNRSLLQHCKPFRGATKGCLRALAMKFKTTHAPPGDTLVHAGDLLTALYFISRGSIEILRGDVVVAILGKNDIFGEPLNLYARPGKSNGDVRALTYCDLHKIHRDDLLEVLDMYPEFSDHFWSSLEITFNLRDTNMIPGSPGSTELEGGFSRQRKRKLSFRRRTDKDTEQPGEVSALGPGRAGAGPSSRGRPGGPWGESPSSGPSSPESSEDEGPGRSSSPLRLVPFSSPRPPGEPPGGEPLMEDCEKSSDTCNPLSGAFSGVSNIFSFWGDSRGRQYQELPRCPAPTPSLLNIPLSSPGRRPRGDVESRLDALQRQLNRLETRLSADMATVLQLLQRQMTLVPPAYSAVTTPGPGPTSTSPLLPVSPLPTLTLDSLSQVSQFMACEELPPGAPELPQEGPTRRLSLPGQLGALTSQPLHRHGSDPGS

Compound | inhibition at 10 µM (hERG) [%] | IC50 (CYP3A4) [µM] | IC50 (CYP2D6) [µM] | inhibitory activity against TbDHFR (TbDHFR) | inhibition at 100 µM (hDHFR) [%] | effect of 1 mM folic acid on T. b. brucei growth inhibition ([1]; 1 mM folic acid, MTX alone or equimolar 4m + MTX) | antiparasitic effect as single agent [1]
Nc1nnc(NCc2ccc(-c3ccccc3)cc2)s1 [4m] | 52.6 ± 11.6 | 12.1 | 11.5 | neither 4m nor 4o is able to inhibit | 40 | reversed; also recorded: rescue cell growth | did not show any significant antiparasitic effect
Nc1nnc(NCCc2cccs2)s1 [4o, N2G(2G(thiophenG2Gyl)ethyl)G1,3,4GthiadiazoleG2,5Gdiamine] | 95.4 ± 8 | 34.4 | 12.4 | neither 4m nor 4o is able to inhibit | 24 | – | low T. brucei cell inhibitory activity
